What was measured:
[1] = biological target: T1, rat MCH 1 receptor (rMCH1R) (Rattus norvegicus, UniProt P97639); assay: Ligand binding assay (125I native-MCH), rMCH; conditions: rMCH1R expressed in HEK 293, membranes, 0.2 nM 125I native-MCH; threshold 100 μM or less
T1 construct: expressed in transfected cells; host or cells: HEK 293 (membrane preparation)
Method: (§1) Human embryonic kidney cells (293 total) expressing either human, rat, or mouse MCH receptor were harvested from 150 mm culture dishes using PBS. Spinning at 1500 rpm for 2 minutes initially pelleted cells. The resulting pellet was then homogenized in 15 mL ice cold sucrose buffer (25 mM HEPES, 0.3 M sucrose, pH 7.4) with a motorized, glass fitted, Teflon® homogenizer. The homogenate was centrifuged at 48,000×g at 4° C. for 10 minutes, resuspended in 15 mL assay buffer (25 mM HEPES, 10 mM MgCl2, 0.2% BSA, 0.1 mg/mL STI, 0.1 mg/mL Pefabloc®, 1 μM Phosphoramidon, pH 7.4) with a Tissue-Tearor® (Biospec Products) and centrifuged again at 48,000×g for 10 minutes. The pellet was homogenized for a third time in 15 mL assay buffer using the Tissue-Tearor® and again centrifuged at 48,000×g for 10 minutes. The resulting pellet was resuspended in assay buffer at a wet weight concentration of 10-20 mg/mL.
(§2) Binding assays were determined as described below using mouse, rat or human MCH 1 receptors (mMCH1R, rMCH1R, and hMCH1R, respectively) expressed in HEK 293; IC50 values were calculated.
(§3) Binding assays were performed in 96-well U-bottom plates. Membranes (100 μg tissue) were incubated at 30° C. for 90 minutes in assay buffer with various peptides in the presence of 0.2 nM 125I native-MCH (Perkin-Elmer Life Sciences, Boston, Mass.) in 100 μL total volume. Non-specific binding was assessed in the presence of 1 μM cold native-MCH. The reaction was terminated by rapid filtration through Unfilter-96 GF/C glass fiber filter plates (FilterMate® 196 Harvester, Packard Instrument Co., Meriden, Conn.) pre-soaked in PBS/0.5% BSA, followed by three washes with 300 μL ice-cold water. Bound radioactivity was determined using a TopCount® microplate scintillation and luminescence counter (Packard Instrument Co., Meriden, Conn.). Nonlinear regression analyses of drug concentration curves were performed using GraphPad Prism® (GraphPad Software, Inc., San Diego, Calif.).

[2] = biological target: T2, rat MCH1 receptor (Rattus norvegicus, UniProt P97639); assay: rMCH FLIPR calcium mobilization functional assay; type: cell-based; conditions: CHOK1-Gqi cells, threshold 100 μM or less
T2 construct: expressed in transfected cells
Method: Pharmacological analyses were conducted using either a HT-PS100 device (Axiom Biotechnologies, San Diego, Calif.), which provides high-resolution dose-response fluorometric measurements of [Ca^++]i mobilization, or using a FLIPR® device (Molecular Devices, Sunnyvale, Calif.).
Materials: Pharmacological analysis was conducted using a FLIPR® device (Molecular Devices, Sunnyvale, Calif.). CHOK1-Gqi cells were stably transfected with the rat MCH1 receptor and maintained under G418 antibiotic pressure. FLIPR® assay buffer consisted of phenol red-free DMEM+2.5 mM probenecid. MCH peptide (Amgen, Inc.) was reconstituted in assay buffer and served as the positive agonist control for all experiments. Test compounds were prepared as 10 mM stocks in 100% DMSO and diluted to a top end working concentration of 10 μM in 96 well black, flat bottom, collagen-I coated plates (Becton Dickinson, Bedford, Mass.).
Methods: CHOK1-Gqi cells stably expressing MCH1R were maintained in Dulbeco's modified Eagle's medium (GIBCO/Life Technologies, Rockville, Md.) supplemented with 2 mM glutamine and 10% dialyzed fetal bovine serum (HyClone, Logan, Utah) at 37° C., 5% CO2. Cells were harvested by 10′ treatment with Versene (GIBCO/Life Technologies) followed by trituration, washing twice with cold (4° C.) hybridoma medium (Serum/Protein free, with L-glutamine, sodium bicarbonate, MOPS buffer) (Sigma-Aldrich Corp, St. Louis, Mo.) and replated onto 96 well black, flat bottom, collagen-I coated plates to a density of 10,000 cells/well. The cells were then loaded with the fluorescent calcium indicator Fura-2 (Molecular Probes, Eugene, Oreg.) at 1.6 μM for 60′ at room temperature. The loaded cells were then washed twice with 90 μl/well of wash buffer (1×HBSS, 20 mM HEPES, 2.5 mM probenecid).
Receptor-stimulated intracellular calcium responses were detected using FLIPR® by monitoring increases in the Fura-2 fluorescence response.
Test compounds were screened for MCH1R activity in the FLIPR® for both agonist and antagonist action. Agonist mode challenges were conducted at a maximum gradient concentration of 1 μM. Antagonist activity was tested by 10 min pre-incubation of cells at a compound concentration of defined to be 300× the EC50 of MCH (typically 1 μM), with subsequent introduction of MCH at a concentration 5-fold of EC50 as determined in preliminary experiments.
Schild experiments were conducted on the FLIPR® for selected compounds by co-administering antagonist compounds together with MCH peptide. Several fixed concentrations of antagonist compounds were prepared in 10-fold increments, and presented to the cells in a gradient of increasing MCH concentration. Values for compound pA2 were calculated by linear regression of MCH EC50s as a function of antagonist concentration.

[3] = biological target: T3, human MCH 1 receptor (hMCH1R) (Homo sapiens, UniProt Q99705); assay: Ligand binding assay (125I native-MCH), hMCH; conditions: hMCH1R expressed in HEK 293, membranes, 0.2 nM 125I native-MCH
T3 construct: expressed in transfected cells; host or cells: HEK 293 (membrane preparation)
Method: as §1, §2, §3

[4] = biological target: T4, human MCH receptor (Homo sapiens, UniProt Q99705); assay: hMCH FLIPR calcium mobilization functional assay; type: cell-based
T4 construct: expressed in transfected cells
T4 sequence (Q99705 whole entry): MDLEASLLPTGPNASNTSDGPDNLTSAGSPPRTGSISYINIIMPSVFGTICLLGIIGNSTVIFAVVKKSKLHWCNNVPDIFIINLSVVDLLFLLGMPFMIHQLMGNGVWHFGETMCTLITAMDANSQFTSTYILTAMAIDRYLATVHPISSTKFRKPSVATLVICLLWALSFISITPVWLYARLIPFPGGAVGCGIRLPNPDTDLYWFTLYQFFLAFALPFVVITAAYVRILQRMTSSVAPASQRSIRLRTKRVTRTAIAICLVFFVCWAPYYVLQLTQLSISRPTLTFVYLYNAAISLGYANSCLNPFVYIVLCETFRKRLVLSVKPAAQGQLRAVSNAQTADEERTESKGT

T3 sequence (Q99705 whole entry): as above
T1 sequence (P97639 whole entry): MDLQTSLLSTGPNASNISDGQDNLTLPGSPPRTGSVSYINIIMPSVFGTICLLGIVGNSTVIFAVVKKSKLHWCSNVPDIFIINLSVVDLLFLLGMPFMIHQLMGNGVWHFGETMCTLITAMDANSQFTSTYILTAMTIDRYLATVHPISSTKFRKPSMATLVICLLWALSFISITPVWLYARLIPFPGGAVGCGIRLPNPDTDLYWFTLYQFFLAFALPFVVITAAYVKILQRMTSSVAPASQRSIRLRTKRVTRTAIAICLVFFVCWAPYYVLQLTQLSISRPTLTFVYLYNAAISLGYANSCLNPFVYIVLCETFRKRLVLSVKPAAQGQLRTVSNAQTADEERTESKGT
T2 sequence (P97639 whole entry): as above

Row | IC50 [1] | Ki [2] | IC50 ([3]; threshold 100 μM or less) | Ki ([4]; threshold 100 nM or less) | Ki ([4]; threshold 100 μM or less) | IC50 ([3]; threshold 100 nM or less) | SMILES
1 | ≤ 100 µM | ≤ 100 µM | ≤ 100 µM | ≤ 0.1 µM | ≤ 100 µM |  | Cc1ccc(Oc2ccc(C(=O)NCCN3CCCC3)cc2NC(=O)Nc2c(C)cccc2C)cc1C [Compound 35, 4-(3,4-dimethylphenoxy)-3-[3-(2,6-dimethylphenyl)ureido]-N-(2-pyrrolidin-1-yl-ethyl)benzamide]
2 | ≤ 100 µM | ≤ 100 µM | ≤ 100 µM |  | ≤ 100 µM | ≤ 0.1 µM | Cc1ccc(Oc2ccc(C(=O)NCCN3CCCC3)cc2NC(=O)Nc2c(C(C)C)cccc2C(C)C)cc1C [Compound 37, 3-[3-(2,6-diisopropylphenyl)ureido]-4-(3,4-dimethylphenoxy)-N-(2-pyrrolidin-1-yl-ethyl)benzamide]

— US20050256161A1, “Melanin concentrating hormone receptor antagonists” (priority 2003, published 2005)
